Results from patent US20180177734A1, “PHARMACEUTICAL FORMULATIONS COMPRISING TENOFOVIR AND EMTRICITABINE” (priority 2015, published 2018).
Read-outs that look alike come from different tables or passages of the source.

Conditions: 40° C./75% RH open, 60° C. closed

CC(C)OC(=O)[C@H](C)N[P@](=O)(CO[C@H](C)Cn1cnc2c(N)ncnc21)Oc1ccccc1 [tenofovir alafenamide hemifumarate]
rate of degradation of tenofovir alafenamide hemifumarate (in the presence of both emtricitabine and rilpivirine HCl): further increased | rate of degradation of tenofovir alafenamide hemifumarate (in the presence of emtricitabine): increased
